# Reference: patent US6835536B2, “Antimicrobial cationic peptides and formulations thereof” (Micrologix Biotech Inc., priority 2001, dated 2004)
# Tested on: C. neoformans
# Test: Agarose dilution MIC assay
# Assay type: cell-based
# Conditions: C. neoformans strain CNE001
# Source text: (§1) The agarose dilution assay measures antimicrobial activity of peptides and peptide analogues. The activity is expressed as the minimum inhibitory concentration (MIC) in μg/ml of the peptide.
# (§2) In order to mimic in vivo conditions, calcium and magnesium supplemented Mueller Hinton broth is used in combination with a low EEO agarose as the bacterial growth medium. Agarose, rather than agar, is used as the charged groups in agar prevent peptide diffusion through the medium. The medium is autoclaved, then cooled to 50-55° C. in a water bath before aseptic addition of a peptide solution. The same volume of different concentrations of peptide solution is added to the cooled, molten agarose that is then poured into a petri plate to a depth of 3-4 mm and allowed to solidify.
# (§3) The bacterial inoculum is adjusted to a 0.5 McFarland turbidity standard (PML Microbiological) and then diluted 1:10 before application on to the agarose plate. The final inoculum applied to the agarose is approximately 10^4 CFU in a 5-8 mm diameter spot. The agarose plates are incubated at 35-37° C. for 16 to 20 hours.
row,Substance,Minimum Inhibitory Concentration [µg/mL]
1,W (Orn) W W (Orn) V A W (Orn) W V (Orn) W [Peptide 11J58CN],2
2,W R W W K V W R W V K W [Peptide 11J36CN],4
3,W (Dab) W W (Dab) P (Dab) W (Dab) W P (Dab) W [Peptide 11J68CN],1
4,W P W W P W R R K [Peptide 11G27CN],16
5,W V R L W W R R V W [Peptide 11F93CN],8
6,W R W W K P K W R W P K W [Peptide 11J02ACN],16
7,W (Orn) W W (Orn) P (Orn) W (Orn) W P (Orn) W [Peptide 11J67CN],2

# Tested on: A. calcoaceticus
# Test: Agarose dilution MIC assay
# Assay type: cell-based
# Conditions: A. calcoaceticus strain ACA002
# Source text: as §1, §2, §3
row,Substance,Minimum Inhibitory Concentration [pg/mL]
1,W (Orn) W W (Orn) V A W (Orn) W V (Orn) W [Peptide 11J58CN],1
2,W (Dab) W W (Dab) P (Dab) W (Dab) W P (Dab) W [Peptide 11J68CN],0.5
3,W P W W P W R R K [Peptide 11G27CN],16
4,W (Orn) W W (Orn) P (Orn) W (Orn) W P (Orn) W [Peptide 11J67CN],1

# Tested on: S. pneumoniae
# Test: Agarose dilution MIC assay
# Assay type: cell-based
# Conditions: S. pneumoniae strain SPN002
# Source text: as §1, §2, §3
row,Substance,Minimum Inhibitory Concentration [µg/mL]
1,W (Orn) W W (Orn) V A W (Orn) W V (Orn) W [Peptide 11J58CN],2
2,W R W W K V W R W V K W [Peptide 11J36CN],2
3,W (Dab) W W (Dab) P (Dab) W (Dab) W P (Dab) W [Peptide 11J68CN],1
4,W P W W P W R R K [Peptide 11G27CN],32
5,W V R L W W R R V W [Peptide 11F93CN],4
6,W R W W K P K W R W P K W [Peptide 11J02ACN],16
7,W (Orn) W W (Orn) P (Orn) W (Orn) W P (Orn) W [Peptide 11J67CN],2

# Tested on: C. jeikeium
# Test: Agarose dilution MIC assay
# Assay type: cell-based
# Conditions: C. jeikeium strain CJK005
# Source text: as §1, §2, §3
row,Substance,Minimum Inhibitory Concentration [µg/mL]
1,W (Orn) W W (Orn) V A W (Orn) W V (Orn) W [Peptide 11J58CN],0.5
2,W R W W K V W R W V K W [Peptide 11J36CN],0.5
3,W (Dab) W W (Dab) P (Dab) W (Dab) W P (Dab) W [Peptide 11J68CN],<0.25
4,W P W W P W R R K [Peptide 11G27CN],0.5
5,W V R L W W R R V W [Peptide 11F93CN],0.5
6,W R W W K P K W R W P K W [Peptide 11J02ACN],0.5
7,W (Orn) W W (Orn) P (Orn) W (Orn) W P (Orn) W [Peptide 11J67CN],<0.25

# Tested on: K. pneumoniae
# Test: Agarose dilution MIC assay
# Assay type: cell-based
# Conditions: K. pneumoniae strain KPN001
# Source text: as §1, §2, §3
row,Substance,Minimum Inhibitory Concentration [µg/mL]
1,W (Orn) W W (Orn) V A W (Orn) W V (Orn) W [Peptide 11J58CN],2
2,W R W W K V W R W V K W [Peptide 11J36CN],4
3,W (Dab) W W (Dab) P (Dab) W (Dab) W P (Dab) W [Peptide 11J68CN],4
4,W P W W P W R R K [Peptide 11G27CN],>128
5,W V R L W W R R V W [Peptide 11F93CN],64
6,W R W W K P K W R W P K W [Peptide 11J02ACN],32
7,W (Orn) W W (Orn) P (Orn) W (Orn) W P (Orn) W [Peptide 11J67CN],8

# Tested on: P. aeruginosa
# Test: Agarose dilution MIC assay
# Assay type: cell-based
# Conditions: P. aeruginosa strain PAE004; agarose dilution
# Source text: as §1, §2, §3
row,Substance,Minimum Inhibitory Concentration [pg/mL]
1,W (Orn) W W (Orn) V A W (Orn) W V (Orn) W [Peptide 11J58CN],16
2,W (Dab) W W (Dab) P (Dab) W (Dab) W P (Dab) W [Peptide 11J68CN],4
3,W P W W P W R R K [Peptide 11G27CN],>128

# Tested on: S. aureus
# Test: Agarose dilution MIC assay
# Assay type: cell-based
# Conditions: S. aureus strain SAU014; agarose dilution
# Source text: as §1, §2, §3
row,Substance,Minimum Inhibitory Concentration [pg/mL]
1,W V R L W W R R V W [Peptide 11F93CN],2
2,W R W W K P K W R W P K W [Peptide 11J02ACN],8
3,W (Orn) W W (Orn) P (Orn) W (Orn) W P (Orn) W [Peptide 11J67CN],2

# Tested on: S. epidermidis
# Test: Agarose dilution MIC assay
# Assay type: cell-based
# Conditions: S. epidermidis strain SEP010; agarose dilution
# Source text: as §1, §2, §3
row,Substance,Minimum Inhibitory Concentration [pg/mL]
1,W P W W P W R R K [Peptide 11G27CN],8

# Tested on: E. faecalis
# Test: Agarose dilution MIC assay
# Assay type: cell-based
# Conditions: E. faecalis strain EFS001
# Source text: as §1, §2, §3
row,Substance,Minimum Inhibitory Concentration [pg/mL]
1,W (Orn) W W (Orn) V A W (Orn) W V (Orn) W [Peptide 11J58CN],32
2,W R W W K P K W R W P K W [Peptide 11J02ACN],64
3,W (Orn) W W (Orn) P (Orn) W (Orn) W P (Orn) W [Peptide 11J67CN],64

# Tested on: S. mitis
# Test: Agarose dilution MIC assay
# Assay type: cell-based
# Conditions: S. mitis strain SMT014
# Source text: as §1, §2, §3
row,Substance,Minimum Inhibitory Concentration [pg/mL]
1,W (Orn) W W (Orn) V A W (Orn) W V (Orn) W [Peptide 11J58CN],1
2,W R W W K V W R W V K W [Peptide 11J36CN],1

# Tested on: S. maltophilia
# Test: Agarose dilution MIC assay
# Assay type: cell-based
# Conditions: S. maltophilia strain SMA002
# Source text: as §1, §2, §3
row,Substance,Minimum Inhibitory Concentration [µg/mL]
1,W (Orn) W W (Orn) V A W (Orn) W V (Orn) W [Peptide 11J58CN],2
2,W R W W K V W R W V K W [Peptide 11J36CN],2
3,W (Dab) W W (Dab) P (Dab) W (Dab) W P (Dab) W [Peptide 11J68CN],4
4,W P W W P W R R K [Peptide 11G27CN],64
5,W V R L W W R R V W [Peptide 11F93CN],8
6,W R W W K P K W R W P K W [Peptide 11J02ACN],8
7,W (Orn) W W (Orn) P (Orn) W (Orn) W P (Orn) W [Peptide 11J67CN],1

# Tested on: E. coli
# Test: Agarose dilution MIC assay
# Assay type: cell-based
# Conditions: E. coli strain ECO005
# Source text: as §1, §2, §3
row,Substance,Minimum Inhibitory Concentration [pg/mL]
1,W P W W P W R R K [Peptide 11G27CN],64
2,W R W W K P K W R W P K W [Peptide 11J02ACN],16

# Tested on: S. pyogenes
# Test: Agarose dilution MIC assay
# Assay type: cell-based
# Conditions: S. pyogenes strain SPY001
# Source text: as §1, §2, §3
row,Substance,Minimum Inhibitory Concentration [pg/mL]
1,W (Dab) W W (Dab) P (Dab) W (Dab) W P (Dab) W [Peptide 11J68CN],0.5

# Tested on: E. cloacae
# Test: Agarose dilution MIC assay
# Assay type: cell-based
# Conditions: E. cloacae strain ECL007
# Source text: as §1, §2, §3
row,Substance,Minimum Inhibitory Concentration [pg/mL]
1,W (Orn) W W (Orn) V A W (Orn) W V (Orn) W [Peptide 11J58CN],16
2,W (Dab) W W (Dab) P (Dab) W (Dab) W P (Dab) W [Peptide 11J68CN],16
3,W R W W K P K W R W P K W [Peptide 11J02ACN],>32
